Measured values taken from PubChem BioAssay (NCI).
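Protocol summary: plate cells (96-well), add compound at 5 concentrations, incubate 48 h, interpolate endpoints linearly. TGI is the concentration that stops growth completely.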

Tests used:
Test in all cases: NCI-60 cell line screen, 48 h
A549 NSCLC = system: A549 NSCLC
HT29 colon = system: HT29 colon
NCI-H226 lung = system: NCI-H226 lung
NCI-H460 lung = system: NCI-H460 lung
OVCAR-8 ovarian = system: OVCAR-8 ovarian
SF-539 CNS = system: SF-539 CNS
SK-OV-3 ovarian = system: SK-OV-3 ovarian
DU-145 prostate = system: DU-145 prostate
EKVX NSCLC = system: EKVX NSCLC
MCF7 breast = system: MCF7 breast
MDA-MB-231 breast = system: MDA-MB-231 breast
MDA-MB-435 = system: MDA-MB-435
PC-3 prostate = system: PC-3 prostate
A498 renal = system: A498 renal

Structure (SMILES) | TGI (A549 NSCLC) [µM] | TGI (HT29 colon) [µM] | TGI (NCI-H226 lung) [µM] | TGI (NCI-H460 lung) [µM] | TGI (OVCAR-8 ovarian) [µM] | TGI (SF-539 CNS) [µM] | TGI (SK-OV-3 ovarian) [µM] | TGI (DU-145 prostate) [µM] | TGI (EKVX NSCLC) [µM] | TGI (MCF7 breast) [µM] | TGI (MDA-MB-231 breast) [µM] | TGI (MDA-MB-435) [µM] | TGI (PC-3 prostate) [µM] | TGI (A498 renal) [µM]
COc1ccc(C(C#N)NNc2nc(C)cc(=O)[nH]2)cc1OC (stereo not given) | > 100 | > 100 | > 100 | > 100 | > 100 | > 100 | > 100 | – | – | – | – | – | – | –
O=S1C2=C(Cc3ccccc3)C(Cc3ccccc3)=C1CCc1cccc(c1)CC2 | 36.3 | 26 | 47.8 | 26.8 | 34 | 41 | 24.3 | 30.3 | 26.3 | 25.7 | 31.3 | 27.5 | 29.3 | –
COC(=O)C1C2C=CC(C2)N1[C@@H](C)c1ccccc1 (stereo not given in full) | > 100 | > 100 | – | > 100 | > 100 | > 100 | > 100 | – | > 100 | – | – | – | – | > 100
CCOc1cc(NC(C)=O)ccc1C(=O)NN1C(=O)/C(=C/c2cc(OC)c(OC)c(OC)c2)N=C1c1ccccc1 | > 100 | > 100 | > 100 | > 100 | > 100 | > 100 | > 100 | – | > 100 | > 100 | – | > 100 | – | > 100
CCC(=O)O[C@H]1CC[C@H]2[C@@H]3CCC4=C/C(=N/NC(=O)c5cccc6c(=O)c7ccccc7[nH]c56)CC[C@]4(C)[C@H]3CC[C@]12C | > 25 | > 25 | > 25 | > 25 | > 25 | > 25 | > 25 | – | > 25 | > 25 | > 25 | > 25 | > 25 | > 25
CC(=O)OC1c2ccccc2CCCCCCC12OCCO2 (stereo not given) | > 100 | > 100 | > 100 | > 100 | > 100 | > 100 | > 100 | – | – | – | – | – | – | > 100
N#Cc1ccc(OCc2nc3cc(C(F)(F)F)ccc3nc2-c2ccccc2)cc1 | > 100 | > 100 | – | > 100 | > 100 | > 100 | – | > 100 | > 100 | > 100 | > 100 | > 100 | > 100 | > 100
CN1CN(c2ccccc2)C2(CCN(CCc3csc4ccccc34)CC2)C1=O | 64.2 | 17.8 | 39.6 | – | 51.6 | 23 | 76.9 | 54.2 | 43 | 33.9 | – | 31.6 | 33.5 | –
CSC1=C(c2ccc(Cl)cc2)SC(N2CCCCC2)N1c1ccc([N+](=O)[O-])cc1 (stereo not given) | > 100 | > 100 | > 100 | 66.4 | 93.7 | 56.5 | 81.9 | – | > 100 | > 100 | 77.1 | > 100 | 63.4 | 73.2
O=C(CC(C(=O)c1ccoc1)c1ccco1)c1ccco1 (stereo not given) | > 100 | > 100 | > 100 | > 100 | > 100 | > 100 | > 100 | > 100 | > 100 | > 100 | > 100 | > 100 | – | > 100
CC1(C)CC(=O)c2c(nc3ccc4ccccc4c3c2-c2ccc(NC(=O)CCC(=O)Nc3ccc(-c4c5c(nc6ccc7ccccc7c46)CC(C)(C)CC5=O)cc3)cc2)C1 | > 100 | > 100 | > 100 | > 100 | > 100 | > 100 | > 100 | > 100 | > 100 | > 100 | > 100 | > 100 | > 100 | –
COc1cc2c(c(OC)c1OC)-c1ccc(SC)cc1[C@H](OC(=O)c1ccccc1)CC2 | – | – | 0.634 | > 100 | > 100 | 0.0841 | > 100 | > 61 | > 100 | > 33.2 | – | > 100 | – | –
COc1ccccc1N1CCN(Cn2c(=O)oc3cccnc32)CC1 | > 100 | > 100 | – | > 100 | > 100 | > 100 | > 100 | > 100 | > 100 | > 100 | > 100 | > 100 | > 100 | > 100
CC(=O)NC1=C(C)C(=O)c2c(nc3n2CCC3O)C1=N (stereo not given) | > 100 | 33.5 | 33.1 | 51.3 | 16.7 | 13.9 | 97.1 | – | 37 | – | – | – | – | 59.6
CNC(=O)c1[nH]cnc1/N=N/N(C)N | > 100 | > 100 | > 100 | > 100 | > 100 | > 100 | > 100 | > 100 | > 100 | – | > 100 | > 100 | > 100 | > 100
CCC1C(c2cc(OC)c(OC)c(OC)c2)c2cc3c(cc2OC1N1CCOCC1)OCO3 (stereo not given) | 17.8 | 7.36 | 27.6 | 12.3 | 17.6 | – | 23.4 | 28.9 | 54.1 | 15.5 | 61.9 | – | 14.1 | –
O=C(N/N=C\c1ccc2ccccc2c1)Nc1ccc([N+](=O)[O-])cc1 | > 85 | > 75.6 | > 100 | > 65.1 | > 66.1 | > 69.7 | > 59.8 | > 65 | > 100 | > 100 | > 100 | > 100 | > 73 | –
COc1cc(COC(=O)N2CCC2C(=O)O)c([N+](=O)[O-])cc1OC (stereo not given) | > 100 | > 100 | > 100 | > 100 | > 100 | > 100 | > 100 | > 100 | > 100 | > 100 | – | > 100 | > 100 | > 100
NC(=O)N1N=C2c3ccccc3SC[C@H]2[C@@H]1c1ccccc1 | > 100 | 38 | 53.2 | 40.8 | 65.9 | – | – | – | > 100 | – | – | – | – | 76.9
